Consider two compounds from patent US20260152777A1, “METHOD FOR PRODUCING EPIGALLOCATECHIN GALLATE MONOGLUCOSIDE” (GIVAUDAN SA, priority 2022, published 2026).

Common to all, as to type: in vivo, human
For assay [1], the system named is female Caucasian volunteers presenting brown spots on their hands. The assay can be described thus: Clinical study: age-spot removal by Raman spectroscopy (skin background fluorescence, melanin detection). To be noted: for Melanin detection Mean +/− SD / Melanin detection TBX − TB0: hands, twice daily, Caucasian women. On the procedure:
A double blind and placebo controlled clinical evaluation was carried out on 45 female Caucasian volunteers aged from 45 to 75 years. The volunteers were presenting brown spots on their hands. All the subjects participating in the study gave their informed consent at the beginning of the study. […] At D0 and D56, the anti-spot efficacy was analyzed by Raman spectroscopy. The compositions described in Example 12 were used. The set-up included a confocal Raman probe coupled to a dispersive Raman spectrograph. The excitation laser beam was sent to the remote probe via a 5 μm core-diameter fiber and the Raman signal was conveyed to the spectrograph via a 100 μm core-diameter fiber. The probe was equipped with a 100× long working distance objective operating in air. A piezo-electric device allowed to collect Z Raman profiles by assuring axial measurements from the surface down to a defined depth in the skin. A color video camera integrated in the probe permitted to visualize the skin surface. This camera is also useful to control the focalization of the laser on the skin. The spectrograph was equipped with a CCD (Coupled Charge Detector) of 1024×256 elements cooled by Peltier effect, and an 830 grooves/mm grating, which allows to cover a large spectral range from 550 to 3700 cm^−1 in a single shot acquisition, with a spectral resolution of about 6 cm^−1. The excitation source was a 660 nm laser diode and the power at the sample was set to 30 mW in accordance with protection standards for radiation. For protection against laser radiation, protective glasses were used. The 660 nm excitation was chosen as the optimal compromise between generation of parasitic fluorescence and sensitivity of the CCD camera over the whole spectral range. For skin characterization, the measurement of high wavenumber vibrations is important to access information on water content. For data acquisition, the device was controlled by the Labspec 5 software. The Z profiles consist of an in-depth scanning through the skin. Raman spectra were collected at different focus points, from skin surface Z=0 μm to 30 μm (under the skin surface) with 3 μm steps. The measurement depths are indicated in the following table with the corresponding acquisition times, leading to a time of 1 min for a complete profile. In total, 519 Raman profiles were recorded: 2 profiles per condition and for each area (unstained area and brown spot area). Each profile comprises 14 spectra, resulting in recorded 7266 spectra. These measurements were used for the evaluation of the spectroscopic marker of skin background fluorescence. This marker is associated with the degree of skin lightening: A decrease in this marker indicates a positive skin lightening effect, whereas a stability or an increase in this marker means that the product has no lightening effect on the skin. The pre-processing of spectral data was performed using Matlab 7.2 (The MathWorks Inc., USA). Aberrant profiles (bad S/N (signal/noise) ratio, fluorescence, incomplete profile with a large zero offset, saturation . . . ) were excluded from the data base. Each non-aberrant profile was submitted to background corrections, which allowed to clean up the Raman signal of the skin. These background corrections included smoothing spectra with a 9-mm Savitzky-Golay filter, spikes correction, […] the normalization on the intensity of the entire wavenumber range with a vectorial function. A baseline correction was not done in order to preserve the skin background fluorescence, which allows for the extraction of the skin fluorescence markers associated with the degree of skin lightening. After these pre-processing steps, corrected data were used to determine the spectra corresponding to the Stratum corneum surface. […] The skin properties were evaluated using Raman spectroscopy after 28 and 56 days of twice daily application.

The subject of assay [2] is Asian volunteers with dull skin and large senescence spots. The assay can be described thus: Clinical study: skin color analysis using Colorface (homogeneity, radiance, pigment defect). To be noted: for Pigment defect Mean +/− SD / Radiance Mean +/− SD / Pigment defect Average volume (mm^3) vs D 0 / Radiance Average variation (%) vs D 0: cream with 2% ascorbic acid, hemiface, Asian women; for pigment homogeneity, fold better than the placebo: vitamin C cream 2%. The source says: For this study, volunteers applied the cream twice a day for 56 days. […]
(§1) Volunteers were divided into two groups as follows: • Group 1: 20 Asian women testing the active cream in comparison to the placebo cream with an average age of 54±5 years. • Group 2: 18 Asian women testing the vitamin C cream in comparison to the placebo cream with an average age of 53±8 years.
(§2) Volunteers applied a cream containing 0.4% of active, 2% of ascorbic acid (vitamin C), respectively, on one hemiface and a placebo cream on the other hemiface […] for 56 days.
(§3) During this study, a skin color and spots analysis was conducted using Colorface®, biomechanical properties were tested using Cutometery®, and the dermis thickness was determined using a DUB SkinScanner 75® probe (max. depth of 3.28 mm).
Skin color measurements were performed based on photos taken with the Colorface® acquisition system. Colorface® is a 2D acquisition system for taking standardized and multimodal photos of the entire face. The device is equipped with a 24M pixel sensor and also has a specific UV lamp. The acquisition methods are: UltraViolet, photo without filter, cross-polarized photo, parallel-polarized photo, standard 45° photo, and standard […].
An analysis of the radiance of the complexion, pigment spots, color (L*,a*,b* parameters) and melanin on the spots from photos using image analysis software was performed. 2D photos of the face were taken on D0, D28 and D56.

For assay [3] the test system is unchanged. As to the kind of experiment: Clinical study: skin biomechanical properties by Cutometer (R0, firmness). The note with it: for Firmness effect (R0) Mean +/− SD / Firmness effect (R0) Average variation (%) vs D 0: hemiface.
Description: For this study, volunteers applied the cream twice a day for 56 days.
GLYCOL, DIMETHICONE, FRAGRANCE
as §1, §2, §3
The analysis of the mechanical properties of the skin enables to assess the functional state of the following tissue structures: • The elastic structures, such as elastic fibers, curvature of the connective bundles, wrinkles of the stratum corneum; and • the viscous-behaving structures, such as interstitial fluids, internal adherences.
The study was performed using a Cutometer® MPA 580 (Courage & Khazaka). The measuring principle is based on the suction method: Negative pressure is created in the device and the skin is drawn into a cylindrical aperture (2 mm in diameter) of the probe. Inside the probe, the penetration depth is determined by an optical measuring system. Each suction phase is followed by a relaxing phase.
In the present study, the following program was used: • Length of the cycle: 4 seconds • Suction: 2 seconds • Relaxation: 2 seconds • Negative pressure: 450 millibars • Diameter of the chamber: 2 mm • Area measured: crow's feet
From these curves, the parameters can be calculated. • During the suction phase, the deformation of the skin by the negative pressure measures first the elastic resistance and then the viscous component, which taken together represent skin firmness. • During the relaxation phase, the immediate recovery of the skin measures sheer cutaneous elasticity, whereas the delayed return of the skin to its initial position measures the viscoelastic component.
This study focused on the R0 or Uf parameter, which represents the amplitude of the skin during the suction phase. At equal pressure, the more flexible the skin, the greater the amplitude. Thus R0 (or UF) will evaluate the viscoelastic dispensability, or in other words, the firmness of the skin.
These parameters were measured on D0, D28, D56.

[4] abbreviates: cream with 2% ascorbic acid, Asian women, D 28.
Where [5] appears, read: cream with 2% ascorbic acid, Asian women, D 56.

For `O=C1O[C@H]([C@@H](O)CO)C(O)=C1O` [Ascorbic acid, ascorbic acid], the “Melanin detection Mean +/− SD” value in assay [1] (ascorbic acid at 2%, D 0 (baseline)) was determined as 49.80 ± 13.13 arbitrary unit; in assay [1] (ascorbic acid at 2%, D 28), 52.05 ± 11.23 arbitrary unit; in assay [1] (ascorbic acid at 2%, D 56), 32.28 ± 10.43 arbitrary unit. Besides, the “Melanin detection TBX − TB0” value in assay [1] (ascorbic acid at 2%, D 28) is “+2.25 a.u”; in assay [1] (ascorbic acid at 2%, D 56) it was −17.52 a.u. Besides, the entries for the “Pigment defect Mean +/− SD” value in assay [2] (D 0 (baseline)), in assay [2] (D 28) and in assay [2] (D 56) were 15660 ± 4532 arbitrary unit, 13826 ± 4311 arbitrary unit and 13078 ± 3731 arbitrary unit, respectively. Further, the “Radiance Mean +/− SD” value is given as 72.3 ± 1.6 arbitrary unit in assay [2] (D 0 (baseline)), 72.7 ± 1.9 arbitrary unit in assay [2] (D 28) and 73.3 ± 2.3 arbitrary unit in assay [2] (D 56). For the same compound, the “Pigment defect Average volume (mm^3) vs D 0” value in assay [2] (D 28) is −11.7%; in assay [2] (D 56), −16.5%. Also, the figures for the “Radiance Average variation (%) vs D 0” value in assay [2] (D 28) and in assay [2] (D 56) were 0.7% and 1.4%, respectively. Moreover, the “pigment homogeneity, fold better than the placebo” value is listed as 1.6 fold in assay [2] (day 28) and 1.8 fold in assay [2] (day 56). The “Firmness effect (R0) Mean +/− SD” value in assay [3] (cream with 2% ascorbic acid, Asian women, D 0 (baseline)) is recorded as 0.283 ± 0.036 arbitrary unit; in assay [3] (setting [4]), 0.263 ± 0.032 arbitrary unit; in assay [3] (setting [5]) it was 0.264 ± 0.046 arbitrary unit. For the same compound, the results for the “Firmness effect (R0) Average variation (%) vs D 0” value in assay [3] (setting [4]) and in assay [3] (setting [5]) were −6.9% and −6.5%, respectively.
`O=C(O[C@@H]1Cc2c(O)cc(O)cc2O[C@@H]1c1cc(O)c(O[C@H]2O[C@H](CO)[C@@H](O)[C@H](O)[C@H]2O)c(O)c1)c1cc(O)c(O)c(O)c1` [epigallocatechin gallate 4′-O-α-monoglucoside]: the “reduction of skin heterogeneity” value in assay [1] (Caucasian volunteers having pigmented spots on their hands) is listed as “up to −24%”. Moreover, the “Melanin detection TBX − TB0” value is −10.2 a.u in assay [1] (product with 0.4% purified preparation, D 28) and −20.4 a.u in assay [1] (product with 0.4% purified preparation, D 56). The “effect on pigment homogeneity, times more pronounced relative to the placebo” value in assay [2] (active cream 0.4%, after 28 days) is recorded as 3.0 times. The “reduction of pigment defect (melanin content in pigmented spots area) compared to the placebo” value in assay [2] (active cream 0.4%, after 56 days) is “up to −21.7%”. The “improvement of skin firmness relative to the placebo cream” value in assay [3] (active cream 0.4%, Asian women) is listed as “up to 21 fold”. Moreover, the “Firmness effect (R0) Average variation (%) vs D 0” value was around 8.7% in assay [3] (active cream 0.4%, Asian women, D 28) and −8.2% in assay [3] (active cream 0.4%, Asian women, D 56). In addition, the “improvement of skin firmness, times better than placebo” value in assay [3] (after 56 days) is given as “up to 21 times”.
